# Test results reported in patent US20120083471A1, “Novel Compounds, Pharmaceutical Compositions Containing Same, Methods of Use for Same, and Methods for Preparing Same” (priority 2008, published 2012).
# “Also recorded” adds a separate entry of the source. Like-named read-outs stand apart in the source and are kept apart here.
# Columns and labels:
# DIO mice = experiment: Acute single-dose FSG67 treatment of DIO mice (body weight, food intake); type: in vivo, mouse; details: single 20 mg/kg ip
# Source text: DIO and lean mouse models. All animal experimentation was done in accordance with guidelines on animal care and use as established by the Johns Hopkins University School of Medicine IACUC. DIO C57BL6J male mice were obtained from Jackson Laboratory (Bar Harbor, ME) and fed a synthetic diet comprised of 60% calories from fat, 20% from carbohydrate, and 20% from protein (5.2 kcal/g) post-weaning through the experimental procedures (D12492i, Research Diets, Inc., New Brunswick, N.J.). […]
# For acute studies, 6 DIO or lean mice were treated with a single dose of FSG67 (20 mg/kg, i.p.) approximately 3 hrs past lights-on. Animal weights and food consumption were measured 18 h after treatment. […] Body weight and food intake were measured daily. In one study, a cohort of mice was pair-fed with amounts consumed by the FSG67-treated animals and mice were monitored with indirect calorimetry (Oxymax Equal Flow System®, Columbus Instruments, Columbus, Ohio). Measurements of VO2 (ml/kg/hr) and VCO2 (ml/kg/hr) were performed and recorded every 15 min. The respiratory exchange ratio (RER) was calculated by Oxymax software, version 5.9, and is defined as ratio of VCO2 to VO2 33. […] Tissues were harvested immediately for RNA extraction; serum was collected and analyzed for glucose, cholesterol, and triglyceride measurements (Bioanalytics, Gaithersburg, Md.). […]
# 3T3-L1 adipocytes = experiment: Acylglyceride synthesis in 3T3-L1 adipocytes ([14C]palmitate labelling, TLC); type: cell-based, mouse; details: for IC50: Mus musculus, 3T3-L1 adipocytes 7 days post-differentiation, 18 h treatment, linear regression, n=3
# Method: 3T3-L1 Adipocytes 3T3-L1 cells were differentiated into adipocytes as described 34. Seven days post-differentiation, cells were treated with FSG67 at indicated concentrations for 18 h, then labeled with [14C]palmitate for 2 h. Following Folch extraction, lipids were subjected to polar and non-polar thin-layer chromatography 35. Triglyceride and phosphatidylcholine fractions were quantified with phosphorimaging (Storm 840, Molecular Dynamics, Piscataway, N.J.).
# Mouse 3T3-L1 adipocytes were used to test the effect FSG67 on acylglyceride synthesis in vitro. […] As phosphatidylcholine was the predominant phospholipid synthesized in the 3T3-L1 adipocytes, it is representative of overall cellular phospholipid synthesis. […] Note the decrease in lipid droplets in the FSG67 treated cells compared to vehicle treated controls. Thus, FSG67 inhibits cellular acylglyceride synthesis with an IC50 similar to its inhibition of GPAT activity in mitochondrial preparations.
# lean mice = experiment: Conditioned taste aversion, two-bottle choice; type: in vivo, mouse; details: 5 mg/kg or 20 mg/kg ip, listed as FSG67
# Method: Conditioned taste aversion. Ten days before testing, eighteen male C57/BL6 mice were placed on a schedule of 2 h daytime access to water. On the test day, mice were divided into three groups and were given access to 0.15% sodium saccharin rather than water for 30 min. Immediately after saccharin access, mice were injected ip with RPMI vehicle or FSG67 (5 and 20 mg/kg body wt) and were allowed water access for the remaining 90 min. Twenty-four hours later, mice were given 2h access to a two-bottle choice test of 0.15% saccharin vs. water. Intakes of both solutions were recorded, and data were expressed as saccharin preference (100× saccharin intake/saccharin intake+water intake).
# GPAT inhibition with FSG67 decreased body weight in DIO mice consuming a high fat diet. FSG67 treated DIO mice lost 4.3±0.5% (1.7±0.2 g) of body mass versus a 5.3±0.4% (2.1±0.2 g) loss for fasted mice (FIG. 11c). Compared to the vehicle control mice which lost 2.5±0.6% (1.0±0.2 g) the weight loss was significant in both the FSG67 treated (p=0.026, 2-tailed t-test) and fasted mice (p=0.002, 2-tailed t-test). […] Thus, the reduction in food intake from FSG67 was not due to sickness behavior (FIG. 11e).
structure (smiles),measurement,setting,value
"CCCCCCCCCS(=O)(=O)Nc1ccccc1C(=O)O [Compound 15g, 2-(Nonylsulfonamido)benzoic acid]",food consumption,DIO mice,0.5 ± 0.1 g
same,"food consumption, % of vehicle control",DIO mice,41.6%
same,triglyceride / lipid droplet accumulation,"3T3-L1 adipocytes; 3T3-L1 adipocytes, 48 h following treatment, photomicrographs, listed as FSG67",dose-dependent reduction; also recorded: reduction in lipid droplet accumulation
same,IC50,3T3-L1 adipocytes; read-out: IC50 for cellular triglyceride synthesis,33.9 µM
same,IC50,3T3-L1 adipocytes; read-out: IC50 for phosphatidylcholine synthesis,36.3 µM
same,conditioned taste aversion (saccharin intake),lean mice,failed to produce a significant reduction in saccharin intake; also recorded: did not induce conditioned tasted aversion
